The source of these data is publication PMC7316160 (Drug testing and analysis, 2018).

“And” between values parts separate entries of the source, which are not always exact repeats. Identical values can stand only once. Like-named read-outs stand apart in the source and are kept apart here.

Data set [1] concerns the target T1, dopamine transporter (DAT) (Rattus norvegicus, UniProt P23977). In words: Release of [^3H]MPP+ via DAT from rat brain synaptosomes. It is filed as biochemical. As to conditions: for Release of [^3H]MPP+ via DAT EC50: rat brain synaptosomes, mean ± SD, n=3.
Data set [2] addresses T2, norepinephrine transporter (NET) (Rattus norvegicus, UniProt Q63380). In words: Release of [^3H]MPP+ via NET from rat brain synaptosomes. It is filed as biochemical. As to conditions: for Release of [^3H]MPP+ via NET EC50: rat brain synaptosomes, mean ± SD, n=3.
In data set [3] the target is 5-HT transporter (SERT) (Rattus norvegicus, UniProt P31652). The experiment in a line: Release of [^3H]5-HT via SERT from rat brain synaptosomes. Format: biochemical. The note with it: for Emax: read-out: Release of [^3H]5-HT via SERT %Emax; for Release of [^3H]5-HT via SERT EC50: rat brain synaptosomes, mean ± SD, n=3.
5-HT transporter (SERT), sequence (P31652 whole entry): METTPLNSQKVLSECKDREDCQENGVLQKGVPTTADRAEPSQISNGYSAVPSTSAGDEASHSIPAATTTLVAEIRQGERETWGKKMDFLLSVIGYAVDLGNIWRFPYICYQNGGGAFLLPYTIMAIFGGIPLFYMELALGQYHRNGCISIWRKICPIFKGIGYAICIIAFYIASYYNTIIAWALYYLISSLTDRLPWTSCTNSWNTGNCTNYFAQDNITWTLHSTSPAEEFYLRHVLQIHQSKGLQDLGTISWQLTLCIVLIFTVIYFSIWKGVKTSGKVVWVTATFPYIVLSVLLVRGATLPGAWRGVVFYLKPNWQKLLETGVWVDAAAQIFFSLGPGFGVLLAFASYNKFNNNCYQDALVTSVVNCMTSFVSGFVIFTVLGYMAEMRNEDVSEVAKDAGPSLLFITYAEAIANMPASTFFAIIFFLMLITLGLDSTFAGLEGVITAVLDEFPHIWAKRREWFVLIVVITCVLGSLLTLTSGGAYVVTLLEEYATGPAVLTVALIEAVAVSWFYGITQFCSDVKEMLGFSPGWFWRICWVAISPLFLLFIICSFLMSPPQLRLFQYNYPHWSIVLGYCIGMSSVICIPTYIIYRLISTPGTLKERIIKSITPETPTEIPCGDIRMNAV
Data set [4] addresses T1, dopamine transporter (DAT). The experiment in a line: Inhibition of [^3H]dopamine uptake at DAT in rat brain synaptosomes. It is filed as biochemical. As to conditions: for DAT/SERT ratio (uptake inhibition): [DAT IC50]^−1/[SERT IC50]^−1, higher value indicates greater DAT selectivity.
Data set [5] in a line: LC-MS/MS quantification in blood/serum of human intoxication cases. Format: in vivo.
The target of data set [6] is T2, norepinephrine transporter (NET). The experiment in a line: Inhibition of [^3H]norepinephrine uptake at NET in rat brain synaptosomes. As to conditions: approximate value. Format: biochemical.
Data set [7] is classed as in vivo, human. As to conditions: for Potassium: reference 3.3 - 5.1; for aspartame aminotransferase: reference 10 - 40; for alanine aminotransferase: reference 12 - 78; for BUN: reference 15 - 39; for Sodium: reference 136 - 145; for pH: reference 7.35 - 7.45; for HCO3: reference 22 - 26; for pCO2: reference 35 - 45; for Glucose: reference 70 - 100; for pO2: reference 80 - 100; for serum creatinine: reference Male 0.8 - 1.3; for Hb: reference Male 13.2 - 18.0; for Hematocrit: reference Male 39.0 - 51.0; for creatine kinase: reference Male 39 - 308; for base excess: reference −2 - +2.

Data set [8] can be described thus: Stability in whole blood on storage. It is filed as physicochemical, human. The note with it: for long-term stability, variation of initial concentration: 90 days; for Stability (% difference): whole blood, n=3.
The mark [9] stands for this setting: Inhibition of [^3H]dopamine Uptake at DAT IC50, rat brain synaptosomes (caudate), mean ± SD, n=3.
Where [10] appears, read: Case 4, co-exposure alcohol, MDMA and N-ethylnorpentylone.

T1 sequence (P23977 whole entry): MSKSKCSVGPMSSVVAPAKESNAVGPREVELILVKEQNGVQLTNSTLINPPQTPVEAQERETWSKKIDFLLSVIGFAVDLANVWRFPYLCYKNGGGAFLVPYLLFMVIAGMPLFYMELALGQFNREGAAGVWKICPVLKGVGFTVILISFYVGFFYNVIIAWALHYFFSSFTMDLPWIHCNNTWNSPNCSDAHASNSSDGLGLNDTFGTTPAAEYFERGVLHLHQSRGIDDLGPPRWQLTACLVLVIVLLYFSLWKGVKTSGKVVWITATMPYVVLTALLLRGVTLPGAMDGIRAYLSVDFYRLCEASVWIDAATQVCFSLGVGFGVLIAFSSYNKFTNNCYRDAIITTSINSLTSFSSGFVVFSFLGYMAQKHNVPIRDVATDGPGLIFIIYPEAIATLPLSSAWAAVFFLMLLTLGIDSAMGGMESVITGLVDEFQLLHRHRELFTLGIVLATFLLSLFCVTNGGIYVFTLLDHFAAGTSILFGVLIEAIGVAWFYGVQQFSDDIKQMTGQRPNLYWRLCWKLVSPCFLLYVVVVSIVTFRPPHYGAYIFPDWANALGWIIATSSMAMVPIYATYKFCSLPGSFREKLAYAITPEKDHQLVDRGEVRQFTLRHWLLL
T2 sequence (Q63380 1-617): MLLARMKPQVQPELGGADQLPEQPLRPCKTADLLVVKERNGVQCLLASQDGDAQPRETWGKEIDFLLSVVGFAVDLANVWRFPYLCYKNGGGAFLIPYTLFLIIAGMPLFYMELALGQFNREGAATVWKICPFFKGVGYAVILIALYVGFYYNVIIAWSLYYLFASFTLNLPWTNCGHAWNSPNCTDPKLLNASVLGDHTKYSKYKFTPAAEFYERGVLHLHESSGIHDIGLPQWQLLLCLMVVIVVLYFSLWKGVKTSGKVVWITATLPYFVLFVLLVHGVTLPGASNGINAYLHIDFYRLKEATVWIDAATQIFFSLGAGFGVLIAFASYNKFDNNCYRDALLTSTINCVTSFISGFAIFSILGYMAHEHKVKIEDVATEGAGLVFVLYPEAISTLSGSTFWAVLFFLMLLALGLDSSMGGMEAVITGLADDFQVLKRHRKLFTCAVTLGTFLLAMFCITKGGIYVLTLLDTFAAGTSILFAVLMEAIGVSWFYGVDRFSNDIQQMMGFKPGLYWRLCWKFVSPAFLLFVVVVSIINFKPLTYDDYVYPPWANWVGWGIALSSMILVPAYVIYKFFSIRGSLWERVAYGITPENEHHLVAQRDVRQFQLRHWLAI

Turning to `CCCC(NC)C(=O)c1ccc2c(c1)OCO2` (stereo not drawn) [Pentylone, 1-(1,3-benzodioxol-5-yl)-2-(methylamino)pentan-1-one], the “Release of [^3H]MPP+ via DAT EC50” value in data set [1] is “inactive”. Moreover, the “Release of [^3H]MPP+ via NET EC50” value in data set [2] is “Inactive”. For the same compound, in data set [3], it took 476 ± 98 nM to reach a half-maximal effect (EC50) and the Emax is 54%. This compound displayed an IC50 in data set [4] (setting [9]) of 154 ± 11 nM. For the same compound, the “DAT/SERT ratio (uptake inhibition)” value in data set [4] came out at 7.8.
In turn, `CCO` [alcohol] registered a serum concentration in data set [5] (Case 4) of 800000 ng/mL.
For `CNC(C)C(=O)c1ccc2c(c1)OCO2` (stereo not drawn) [Methylone, 3,4-methylenedioxy-N-methylcathinone], the EC50 in data set [1] was found to be 178 ± 17 nM; in data set [2] it was 81 ± 8 nM; in data set [3], 342 ± 20 nM. In addition, the “DAT/SERT ratio (release)” value in data set [1] ([DAT EC50]^−1/[SERT EC50]^−1, higher value indicates greater DAT selectivity) was 1.9. Moreover, the Emax in data set [1] (read-out: Release of [^3H]MPP+ via DAT %Emax) is 96%; in data set [2] (read-out: Release of [^3H]MPP+ via NET %Emax), 94%; in data set [3] it was 99%. The IC50 is around 1000 nM in data set [6]; 1390 ± 81 nM in data set [4] (setting [9]); around 1000 nM in data set [4] (uptake inhibition at DAT IC50, rat brain synaptosomes, approximate value). The “DAT/SERT ratio (uptake inhibition)” value in data set [4] was 0.83 and 0.8.
`CCCC(NCC)C(=O)c1ccc2c(c1)OCO2` (stereo not drawn) [N-ethylnorpentylone, 1-(1,3-benzodioxol-5-yl)-2-(ethylamino)pentan-1-one]: the “post mortem whole blood concentration” value in data set [5] (Case 1, fatal, only psychoactive analyte detected) is 170 ng/mL. Moreover, the serum concentration is 7 ng/mL in data set [5] (Case 2, recovered by 12 h); 19 ng/mL in data set [5] (setting [10]); 149 ng/mL in data set [5] (Case 5, coma, cerebrovascular hemorrhage); 61 ng/mL in data set [5] (Case 6, psychosis). For the same compound, the “symptoms of intoxicated subjects” value in data set [7] (6 human cases) is given as “palpitations, tachycardia, agitation, aggression, hallucinations, coma and, in one case, death”. The “heart rate (tachycardia)” value in data set [7] (Case 2, at ED) amounted to 176 bpm. Also, the Potassium in data set [7] (Case 3) turned out to be 3.6 mEq/L; in data set [7] (Case 4), 3.4 mEq/L; in data set [7] (Case 5), 3.7 mEq/L; in data set [7] (Case 6), 3.8 mEq/L. Also, the aspartame aminotransferase in data set [7] (Case 3) was found to be 93 U/L; in data set [7] (Case 4) it was 40 U/L; in data set [7] (Case 6), 24 U/L. Also, the values for the alanine aminotransferase in data set [7] (Case 3), in data set [7] (Case 4) and in data set [7] (Case 6) were 35 U/L, 25 U/L and 27 U/L, respectively. The BUN is 14 mg/dL in data set [7] (Case 3), 14 mg/dL in data set [7] (Case 4), 28 mg/dL in data set [7] (Case 5) and 31 mg/dL in data set [7] (Case 6). The Sodium worked out at 140 mEq/L in data set [7] (Case 3), 137 mEq/L in data set [7] (Case 4), 137 mEq/L in data set [7] (Case 5) and 137 mEq/L in data set [7] (Case 6). In data set [7] (Case 3, reference Adult 50 - 136), the phosphatase alkaline was found to be 53 U/L. For the same compound, the blood pressure in data set [7] (Case 4, described as normal) is 123/89. Besides, the “creatine kinase MB isoenzyme” value in data set [7] (Case 4, reference 7 - 25) is 21 U/L. In addition, the pH amounted to 7.46 in data set [7] (Case 4) and 7.41 in data set [7] (Case 5). Further, the HCO3 in data set [7] (Case 4) stood at 20.5 mmol/L; in data set [7] (Case 5) it was 19 mmol/L. Besides, the pCO2 in data set [7] (Case 4) was determined as 29.4 mmHg; in data set [7] (Case 5), 31 mmHg. The Glucose in data set [7] (Case 4) stood at 104 mg/dL; in data set [7] (Case 6), 101 mg/dL. The pO2 worked out at 72.5 mmHg in data set [7] (Case 4) and 86 mmHg in data set [7] (Case 5). For the same compound, the serum creatinine in data set [7] (Case 4) was 0.9 mg/dL; in data set [7] (Case 5) it was 0.7 mg/dL; in data set [7] (Case 6), 0.7 mg/dL. Moreover, the Hb in data set [7] (Case 4) amounted to 15.5 g/dL; in data set [7] (Case 5), 13.0 g/dL; in data set [7] (Case 6), 13.0 g/dL. Also, the Hematocrit in data set [7] (Case 4) worked out at 43.0%; in data set [7] (Case 5) it was 43.0%; in data set [7] (Case 6), 39.9%. For the same compound, the creatine kinase was 605 U/L in data set [7] (Case 4), 1,260 U/L in data set [7] (Case 5) and 713 U/L in data set [7] (Case 6). Further, the base excess in data set [7] (Case 4) was -1.6 mmol/L; in data set [7] (Case 5), -3.8 mmol/L. In data set [7] (Case 5), the “Glasgow score (neurological depression)” value turned out to be 5. Further, the Lactate in data set [7] (Case 5, reference 0.5 - 1.6) was determined as 11.0 mmol/L. Further, in data set [7] (Case 5, reference 1.6 - 2.4), the Magnesium was determined as 1.6 mg/dL. Moreover, the “Release of [^3H]MPP+ via DAT EC50” value in data set [1] was “unable to evoke release”; in data set [1] (listed as N-EthylNorpentylone), “inactive”; in data set [1] (listed as N-Ethylnorpentylone), “no transporter releasing activity”. In addition, the “Release of [^3H]MPP+ via NET EC50” value in data set [2] is “unable to evoke release”; in data set [2] (listed as N-EthylNorpentylone), “inactive”; in data set [2] (listed as N-Ethylnorpentylone) it was “no transporter releasing activity”. Also, the figures for the “Release of [^3H]5-HT via SERT EC50” value in data set [3], in data set [3] (listed as N-EthylNorpentylone) and in data set [3] (listed as N-Ethylnorpentylone) were “unable to evoke release”, “inactive” and “no transporter releasing activity”, respectively. In data set [4] (setting [9]), this compound registered an IC50 of 37 ± 2 nM. The “DAT/SERT ratio (uptake inhibition)” value in data set [4] was above 10. For the same compound, the “long-term stability, variation of initial concentration” value in data set [8] (fortified whole blood, both QC concentrations, 4 °C) is −3.5%; in data set [8] (fortified whole blood, both QC concentrations, −20 °C), “+6.5%”; in data set [8] (post mortem blood sample, 4 °C) it was −19.7%; in data set [8] (post mortem blood sample, −20 °C), −5.5%. Moreover, the “Stability (% difference)” value in data set [8] (High QC (400 ng/mL), 3 freeze-thaw cycles) was −3.0%; in data set [8] (High QC (400 ng/mL), 4 °C, 24h), 7.1%; in data set [8] (High QC (400 ng/mL), 4 °C, 72h), 5.9%; in data set [8] (High QC (400 ng/mL), −20 °C, 24h), −3.3%; in data set [8] (High QC (400 ng/mL), −20 °C, 72h) it was −2.9%; in data set [8] (Low QC (15 ng/mL), 3 freeze-thaw cycles), −11.8%. Besides, the “Stability (% difference)” value in data set [8] (Low QC (15 ng/mL), 4 °C, 24h) is given as −2.4%; in data set [8] (Low QC (15 ng/mL), 4 °C, 72h), −4.9%; in data set [8] (Low QC (15 ng/mL), −20 °C, 24h), −1.8%; in data set [8] (Low QC (15 ng/mL), −20 °C, 72h) it was −12.6%.
In data set [5] (setting [10]), `CNC(C)Cc1ccc2c(c1)OCO2` (stereo not drawn) [MDMA, 3,4-methylenedioxymethamphetamine] had a serum concentration of 54 ng/mL.

By EC50 is commonly meant the concentration needed to bring the measured effect to its halfway point. Lower therefore signals a more potent agent. Usually Emax stands for the greatest response seen or fitted, relative to the assay's reference. The term IC50 denotes the concentration needed to halve the response being measured. A high value points to a need for much substance.
